# Assay results: patent US9187450B2, “Substituted pyridine compound” (Daiichi Sankyo Company, Limited, priority 2010, dated 2015)
# pIC50: −log10 of the molar value.
# Biological target: recombinant human CETP protein (Homo sapiens (Human), UniProt P11597)
# Experiment: Test of CETP inhibition activity (in vitro, buffer-based)
# Format: biochemical
# Conditions: reconstituted HDL with [14C]-labeled cholesteryl ester, acceptor lipoprotein, 37° C.
# Protocol: Test of CETP Inhibition Activity (In Vitro, Buffer-Based)
# (1) Preparation of Reconstituted HDL
# Cholesterol (1.125 μmol), phosphatidyl choline (4.5 μmol) and [^14C]-labeled cholesteryl ester (2.0 μCi; 40 μl) were taken in a glass test tube and well mixed with a vortex, and dried under a nitrogen gas current so that it formed a thin film. The obtained mixture was dissolved in ethanol (200 μl), which was designated as Solution A. A PBS solution [a mixed solution of Na2HPO4 (30 mM), KH2PO4 (8.8 mM), NaCl (60 mM) and EDTA (pH 7.4; 0.67 mM); 4 ml] was taken in a tube and the reaction solution was vigorously stirred with a vortex under a nitrogen current. The above-described Solution A was gently injected into this mixture with a syringe and the reaction solution was vigorously stirred with a vortex for 5 minutes under a nitrogen current. Sodium cholate ([…]; 0.38 ml) was added to the obtained mixture and the reaction solution was stirred for 2 minutes. ApoA-I protein (3 mg) was added to the obtained mixture and the reaction solution was stirred for 2 minutes. The obtained mixture was adjusted to 5 ml with the PBS solution and then dialyzed with the PBS solution. The obtained mixture was designated as the reconstituted HDL.
# (2) Preparation of Acceptor Lipoprotein
# NaBr was added to the plasma of a healthy person and the density of the mixture was adjusted to 1.019, and the mixture was subjected to density gradient centrifugation (40000 rpm, for 16 hours) to remove the fraction having a density of less than 1.019. NaBr was added to the obtained mixture and the density of the solution was adjusted to 1.063, and the solution was subjected to density gradient centrifugation (40000 rpm, 18 hours) to provide the fraction consisting of IDL (intermediate density lipoprotein) and LDL (1.019<density<1.063). The obtained fraction was dialyzed with the PBS solution. The obtained mixture was designated as the acceptor lipoprotein.
# (3) Measurement of CETP Inhibition Activity
# A recombinant human CETP protein (manufactured by Roar Biomedical Inc.; 4.5 ng), the acceptor lipoprotein described in (2) above (32.5 μg) and 5,5′-dithio-bis-(2-nitrobenzoic acid) (7 mM, 15 μl) were taken in a 96 well plate and the total amount of the mixture was adjusted to 48.5 μl with the PBS solution. The test compound [DMSO solution (concentration: 0.15, 0.5, 1.5, 5, 15, 50, 150 and 500 μM; 1.5 μl] was added to each well and the mixture was incubated in a thermostatic bath at 37° C. for 60 minutes. The reconstituted HDL (50 μl) described in (1) above was added to each well and the mixture was reacted in a thermostatic bath at 37° C. for 60 minutes. The 96 well plate was moved onto ice and a precipitation reagent [a mixed solution of magnesium chloride (60 mM) and 0.1% dextran sulfate [1/1 (v/v)]; 15 μl] was added to each well, and then the mixture was allowed to stand on ice for 15 minutes. The reaction solution (80 μl) in each well was moved to a filter plate and centrifuged at 1500 rpm for 1 minute, and the filtrate which passed through the filter was designated as the HDL fraction and the radioactivity thereof was measured with a scintillation counter. The percentage decrease in radioactivity in the case where the test compound was added in comparison with that in case where the test compound was not added was designated as the percentage CETP inhibition. The IC50 value was calculated from the percentage CETP inhibition.
# recombinant human CETP protein, sequence (P11597 18-493): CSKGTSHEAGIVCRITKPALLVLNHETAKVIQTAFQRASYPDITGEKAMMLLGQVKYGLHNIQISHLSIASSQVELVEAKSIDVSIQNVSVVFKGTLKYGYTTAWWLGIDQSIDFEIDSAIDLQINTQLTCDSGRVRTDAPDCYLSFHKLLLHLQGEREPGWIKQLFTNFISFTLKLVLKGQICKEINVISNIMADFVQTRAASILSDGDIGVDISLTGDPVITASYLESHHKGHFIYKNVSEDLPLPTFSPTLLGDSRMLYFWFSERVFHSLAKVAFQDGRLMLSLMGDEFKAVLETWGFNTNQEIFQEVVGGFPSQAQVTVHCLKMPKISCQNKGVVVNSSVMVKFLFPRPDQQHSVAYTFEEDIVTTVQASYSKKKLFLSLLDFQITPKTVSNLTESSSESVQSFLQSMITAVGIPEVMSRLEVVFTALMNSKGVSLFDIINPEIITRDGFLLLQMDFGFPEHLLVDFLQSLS
row,Structure (SMILES),pIC50
1,"CC1(C)Cc2nc(C3CCN(c4ncc(C5CC5)cn4)CC3)c([C@@H](F)c3ccc(C(F)(F)F)cc3)c(C3CCC(F)(F)CC3)c2[C@@H](O)C1 (single isomer, unassigned) [Example 19, (−)-2-[1-(5-Cyclopropylpyrimidin-2-yl)piperidin-4-yl]-4-(4,4-difluorocyclohexyl)-3-{fluoro[4-(trifluoromethyl)phenyl]methyl}-7,7-dimethyl-5,6,7,8-tetrahydroquinolin-5-ol]",6.70
2,"CC(C)COCc1cnc(N2CCC(c3nc4c(c(C5CCC(F)(F)CC5)c3[C@@H](F)c3ccc(C(F)(F)F)cc3)[C@@H](O)CC(C)(C)C4)CC2)nc1 (single isomer, unassigned) [Example 29, (−)-4-(4,4-Difluorocyclohexyl)-3-{fluoro[4-(trifluoromethyl)phenyl]methyl}-7,7-dimethyl-2-(1-{5-[(2-methylpropoxy)methyl]pyrimidin-2-yl}piperidin-4-yl)-5,6,7,8-tetrahydroquinolin-5-ol]",7.21
3,"CC1(C)Cc2nc(C3CCN(c4ncc(C#N)cn4)CC3)c([C@@H](F)c3ccc(C(F)(F)F)cc3)c(C3CCC(F)(F)CC3)c2[C@@H](O)C1 (single isomer, unassigned) [Example 17, (−)-2-[1-(5-cyanopyrimidine-2-yl)piperidin-4-yl]-4-(4,4-difluorocyclohexyl)-3-{fluoro[4-(trifluoromethyl)phenyl]methyl}-7,7-dimethyl-5,6,7,8-tetrahydroquinoline-5-ol]",6.66
4,"CC1(C)Cc2nc(C3CCN(c4ncc(O)cn4)CC3)c([C@@H](F)c3ccc(C(F)(F)F)cc3)c(C3CCC(F)(F)CC3)c2[C@@H](O)C1 (single isomer, unassigned) [Example 4, (−)-4-(4,4-Difluorocyclohexyl)-3-{fluoro[4-(trifluoromethyl)phenyl]methyl}-2-[1-(5-hydroxypyrimidin-2-yl)piperidin-4-yl]-7,7-dimethyl-5,6,7,8-tetrahydroquinolin-5-ol]",7.14
5,"CCCCCc1cnc(N2CCC(c3nc4c(c(C5CCC(F)(F)CC5)c3[C@@H](F)c3ccc(C(F)(F)F)cc3)[C@@H](O)CC(C)(C)C4)CC2)nc1 (single isomer, unassigned) [Example 16, (−)-4-(4,4-Difluorocyclohexyl)-3-{fluoro[4-(trifluoromethyl)phenyl]methyl}-7,7-dimethyl-2-[1-(5-pentylpyrimidin-2-yl)piperidin-4-yl]-5,6,7,8-tetrahydroquinolin-5-ol]",6.61
6,"CC1(C)Cc2nc(C3CCN(c4ncc(N5CCOCC5)cn4)CC3)c([C@@H](F)c3ccc(C(F)(F)F)cc3)c(C3CCC(F)(F)CC3)c2[C@@H](O)C1 (single isomer, unassigned) [Example 5, (−)-4-(4,4-Difluorocyclohexyl)-3-{fluoro[4-(trifluoromethyl)phenyl]methyl}-7,7-dimethyl-2-{1-[5-(morpholin-4-yl)pyrimidin-2-yl]piperidin-4-yl}-5,6,7,8-tetrahydroquinolin-5-ol]",6.60
7,"CC1(C)Cc2nc(C3CCN(c4ncc(CO)cn4)CC3)c([C@@H](F)c3ccc(C(F)(F)F)cc3)c(C3CCC(F)(F)CC3)c2[C@@H](O)C1 [Example 20, (−)-4-(4,4-Difluorocyclohexyl)-3-{fluoro[4-(trifluoromethyl)phenyl]methyl}-2-[1-[5-(hydroxymethyl)pyrimidin-2-yl]piperidin-4-yl]-7,7-dimethyl-5,6,7,8-tetrahydroquinolin-5-ol]",6.59

# Stronger by pIC50, values ahead:
row,pIC50,Structure (SMILES)
1,7.72,"CC1(C)Cc2nc(C3CCN(c4ncc(C(=O)N5CCOCC5)cn4)CC3)c([C@@H](F)c3ccc(C(F)(F)F)cc3)c(C3CCC(F)(F)CC3)c2[C@@H](O)C1 (single isomer, unassigned) [Example 32, 4-(4,4-Difluorocyclohexyl)-3-{fluoro[4-(trifluoromethyl)phenyl]methyl}-7,7-dimethyl-2-{1-[5-(morpholin-4-yl-carbonyl)pyrimidin-2-yl]piperidin-4-yl}-5,6,7,8-tetrahydroquinolin-5-ol]"
2,7.23,"CC1(C)Cc2nc(C3CCN(c4ncc(-c5cccc(C(=O)O)c5)cn4)CC3)c([C@@H](F)c3ccc(C(F)(F)F)cc3)c(C3CCC(F)(F)CC3)c2[C@@H](O)C1 [Example 55, (−)-2-{1-[5-(3-Carboxyphenyl)pyrimidin-2-yl]piperidin-4-yl}-4-(4,4-difluorocyclohexyl)-3-{fluoro[4-(trifluoromethyl)phenyl]methyl}-7,7-dimethyl-5,6,7,8-tetrahydroquinolin-5-ol]"
3,7.35,"CCOCc1cnc(N2CCC(c3nc4c(c(C5CCC(F)(F)CC5)c3[C@@H](F)c3ccc(C(F)(F)F)cc3)[C@@H](O)CC(C)(C)C4)CC2)nc1 (single isomer, unassigned) [Example 26, (−)-4-(4,4-Difluorocyclohexyl)-2-{1-[5-(ethoxymethyl)pyrimidin-2-yl]piperidin-4-yl}-3-{fluoro[4-(trifluoromethyl)phenyl]methyl}-7,7-dimethyl-5,6,7,8-tetrahydroquinolin-5-ol]"
4,7.54,"CN(C)C(=O)c1cnc(N2CCC(c3nc4c(c(C5CCC(F)(F)CC5)c3[C@@H](F)c3ccc(C(F)(F)F)cc3)[C@@H](O)CC(C)(C)C4)CC2)nc1 (single isomer, unassigned) [Example 31, (−)-4-(4,4-Difluorocyclohexyl)-2-{1-[5-(dimethylcarbamoyl)pyrimidin-2-yl]piperidin-4-yl}-3-{fluoro[4-(trifluoromethyl)phenyl]methyl}-7,7-dimethyl-5,6,7,8-tetrahydroquinolin-5-ol]"
5,7.96,"CC1(C)Cc2nc(C3CCN(c4ncc(OC[C@H](O)CO)cn4)CC3)c([C@@H](F)c3ccc(C(F)(F)F)cc3)c(C3CCC(F)(F)CC3)c2[C@@H](O)C1 (single isomer, unassigned) [Example 40]"
6,7.68,"CC(C)(O)COc1cnc(N2CCC(c3nc4c(c(C5CCC(F)(F)CC5)c3[C@@H](F)c3ccc(C(F)(F)F)cc3)[C@@H](O)CC(C)(C)C4)CC2)nc1 (stereo in doubt) [Example 44, 4-(4,4-Difluorocyclohexyl)-3-{fluoro[4-(trifluoromethyl)phenyl]methyl}-2-{1-[5-(2-hydroxy-2-methylpropoxy)pyrimidin-2-yl]piperidin-4-yl}-7,7-dimethyl-5,6,7,8-tetrahydroquinolin-5-ol]"
7,7.40,"COCc1cnc(N2CCC(c3nc4c(c(C5CCC(F)(F)CC5)c3[C@@H](F)c3ccc(C(F)(F)F)cc3)[C@@H](O)CC(C)(C)C4)CC2)nc1 (single isomer, unassigned) [Example 27, (−)-4-(4,4-Difluorocyclohexyl)-3-{fluoro[4-(trifluoromethyl)phenyl]methyl}-2-{1-[5-(methoxymethyl)pyrimidin-2-yl]piperidin-4-yl}-7,7-dimethyl-5,6,7,8-tetrahydroquinolin-5-ol]"
8,8.10,"CC1(C)Cc2nc(C3CCN(c4ncc(OCC(CO)CO)cn4)CC3)c([C@@H](F)c3ccc(C(F)(F)F)cc3)c(C3CCC(F)(F)CC3)c2[C@@H](O)C1 (single isomer, unassigned) [Example 49, (−)-4-(4,4-Difluorocyclohexyl)-3-{fluoro[4-(trifluoromethyl)phenyl]methyl}-2-(1-{5-[3-hydroxy-2-(hydroxymethyl)propoxy]pyrimidin-2-yl}piperidin-4-yl)-7,7-dimethyl-5,6,7,8-tetrahydroquinolin-5-ol]"
